Like-named read-outs stand apart in the source and are kept apart here. Bridge positions count the residues as written; N and C are the ends. Ends that are not written are not given here. Peptide text beside a SMILES is read from it. * marks the point of attachment. 5TAMRA = CN(C)c1ccc2c(c1)Oc1cc(N(C)C)ccc1C21OC(=O)c2cc(C(=O)*)ccc21
Experiments:
E. coli (MG1655) = assay type: cell-based, Escherichia coli
Protocol: For all experiments and E. coli strains, cells were grown in a medium (M9gluCAAT) with M9 salts (33.7 mM Na2HPO4, 22mM KH2PO4, 8.55 mM NaCl, 9.35 mM NH4Cl), 0.2% (w/v) glucose, 0.4% (w/v) casamino acids, 1 mM MgSO4, 0.3 mM CaCl2, 1 μg/mL thiamine, and trace elements (13.4 mM ethylene-diamine-tetra-acetic-acid (EDTA), 3.1 mM FeCl3-6H2O, 0.62 mM ZnCl2, 76 μM CuCl2-2H2O, 42 μM CoCl2-2H2O, 162 μM H3BO3, 8.1 μM MnCl2-4H2O). Prior to every experiment, cells were first inoculated into M9gluCAAT and grown to stationary phase at 37°C. For all assays except the biofilm experiments, the culture was diluted to 1/10,000 or more in fresh medium and grown at 37°C until it reached an optical density at 600 nm (OD) of 0.2–0.4. For the biofilm experiments, cells were grown in M9gluCAAT supplemented with 100 μg/mL ampicillin to maintain the GFP-expressing plasmid. The overnight stationary-phase cultures were then diluted into the same medium to an OD of 0.015. See below for details on biofilm growth.
Except for the biofilm experiments, the strains used in this study were derived from MG1655 (ATCC 47076), which was used to estimate the minimum inhibitory concentration (MIC) for all the studied peptides (or peptoids) using a microplate reader (Figure 1A). To detect the timing of outer and inner membrane permeabilization to proteins, strain CJW7845 was constructed to carry two freely diffusing fluorescent proteins: mScarlet-I in the periplasm and mTagBFP2 in the cytoplasm. Construction of CJW7845 was done by transforming pBAD-mTagBFP2 plasmid (Addgene #34632, a gift from Vladislav Verkhusha; ([Subach et al., 2011])) into an E. coli strain expressing a periplasmic mScarlet-I reporter ([Cañas-Duarte 2021]), as previously described ([Chung et al., 1989]). Transformants were restreaked on fresh selection plates and confirmed via microscopy.
To determine the minimal inhibitory concentration (MIC) of the selected AMPs against either MG1655 or ATCC 25922 E. coli strains, exponentially growing cells were diluted in fresh medium to an OD = 10^−6 (~500 cells/mL) and mixed 50:50 with titrated AMP concentrations (which were chosen to be over a range that included the MIC) in a 96-well plate (flat bottom with low evaporation lid, 3595, Corning, Arizona, USA). A final OD of 5 × 10^−7 corresponds to ~250 cells/mL. OD curves were sampled every 5 min for a total of 48 h using a microplate reader (BioTek Synergy 2, Agilent Technologies Inc., California, USA). Raw data were exported as a text file and analysed using a custom-written Python script (microplate_reader_analysis.py). To measure maximum growth rates, the log(OD) was fitted using a linear regression over a 12-point moving window (60 min), which provides the instantaneous growth rate (log(OD)/h), from which the global maximum was computed. The MIC was defined as the minimum AMP concentration for which the maximum growth rate was < 0.2 log(OD)/h within the first 20 h of incubation. Each MIC experiment was performed independently at least three times (with at least two technical replicates each), and the mode across all replicates was taken as the final MIC; in the rare cases of a tie, an additional replicate was performed, which was sufficient to resolve it.

E. coli strain (CJW7845) = assay: Time-lapse single-cell phenotyping of inner/outer membrane permeabilization to proteins and growth arrest in microwells; assay type: cell-based, Escherichia coli; set-up: key to Class (timing of growth arrest relative to IM permeabilization to proteins): Class I AMPs and PMs cause growth arrest predominantly associated with inner membrane (IM) permeabilization; class II compounds inhibit growth without substantial IM permeabilization; conditions: for OM-permeabilized cells among IM-permeabilized cells: CJW7845, during the experiment
Protocol: For experiments with PDMS microwells, cells were allowed to grow for ~30 min in the temperature-controlled enclosure prior to imaging. A 10X concentrated AMP solution was spiked in (at 1/10 the volume of the well) and mixed well by pipetting after ~20 min from the start of the image acquisition, without interrupting the timelapse sequence. When the uptake of SYTOX Green was monitored, SYTOX Green was included in the AMP solution and spiked in during the experiment to obtain a final concentration of SYTOX Green of 50 nM in the well. This allowed us to monitor healthy cell growth prior to AMP treatment, to rapidly set the desired AMP (or SYTOX Green) concentration from one frame to the next (unlike for flow-controlled injection systems), and to resolve the AMP-induced phenotype in real time. The current design allows for testing up to four independent conditions in parallel.
To analyse the single-cell experiments in microwells, OmniSegger software (https://github.com/tlo-bot/omnisegger), which combines SuperSegger MATLAB-based suite ([Stylianidou et al., 2016]) for cell analysis with Omnipose segmentation ([Cutler et al., 2022]), was used to first process the microscopy images by performing drift correction, cell segmentation, and cell linking. Given that AMP-treated cells can display extreme phenotypes, such as exceedingly bright and/or heterogeneous phase contrast signal (likely a result of the widely changing intracellular density upon AMP treatment) and that the software’s pre-trained model bact_phase_omni ([Cutler et al, 2022]) tended to split cells before cell division was completed, a new Omnipose model was trained from scratch starting from bact_phase_omni-generated masks that were further corrected and curated using custom-made Python scripts (screening_good_bad.py and generate_training_dataset.py). Details on the Omnipose model retraining can be found in a previous publication ([Thappeta et al., 2025]). The final model (omnipose_phase_microwells_model) and corresponding training datasets are available at https://github.com/JacobsWagnerLab/published/tree/master/Fragasso_et_al_2025 and BioImage Archive (accession number: S-BIAD1823), respectively.
MATLAB files of the linked cell trajectories output from OmniSegger were then imported, background subtracted using background_subtraction.py, which was adapted from a previous study ([Papagiannakis et al., 2025]), and converted to Python data structures (import_processing_code.py), from which cell features such as cell area, nucleoid area, mean fluorescence intensity, etc., were extracted for each cell at each frame. The exported dataframes were further processed to estimate instantaneous growth rates and were run through a series of functions to perform curation based on cell areas and instantaneous growth rates over time (post_processing_curation_functions.py). […] Represented data points were pooled from multiple replicates.
Analysis of strain CJW7845 proceeded by extracting the timings of permeabilization of the outer and inner membranes based on the mean fluorescence intensities of mScarlet-I and/or mTagBFP2 fluorescent proteins (using function get_permeabilization_time.py), cell growth arrest, and the initiation time of growth inhibition. To obtain accurate timings underlying membrane permeabilization events, information from both the signal intensity itself as well as its derivative were combined, which enabled us to accurately resolve the relevant changes in fluorescent protein signal beyond the intrinsic high-frequency noise and low-frequency photobleaching. Inner membrane permeabilization to proteins can result in two possible phenotypes when simultaneously monitoring freely diffusing periplasmic and cytoplasmic probes, depending on which membrane (outer or inner) becomes permeabilized first. When the outer membrane is first permeabilized, mScarlet-I signal is lost first, followed by mTagBFP2 when the inner membrane becomes also permeabilized. […]

[1] = E. coli MG1655, M9gluCAAT, 37°C, 20 h, inoculum ~250 cells/mL, mode across three biological replicates
[2] = 2X MIC, CJW7845, M9gluCAAT, 37°C, time-lapse microscopy

Molecule: CC[C@H](C)[C@H](NC(=O)[C@H](CCCCN)NC(=O)[C@H](CCC(=O)O)NC(=O)[C@H](CCCCN)NC(=O)[C@H](CO)NC(=O)[C@H](CCCCN)NC(=O)[C@H](CCCNC(=N)N)NC(=O)[C@H](Cc1ccccc1)NC(=O)[C@H](Cc1ccccc1)NC(=O)[C@H](CC(=O)O)NC(=O)CNC(=O)[C@H](CC(C)C)NC(=O)[C@H](CC(C)C)NC(=O)c1ccc2c(c1)C(=O)OC21c2ccc(N(C)C)cc2Oc2cc(N(C)C)ccc21)C(=O)NCC(=O)N[C@@H](CCCCN)C(=O)N[C@@H](CCC(=O)O)C(=O)N[C@@H](Cc1ccccc1)C(=O)N[C@@H](CCCCN)C(=O)N[C@@H](CCCNC(=N)N)C(=O)N[C@H](C(=O)N[C@H](C(=O)N[C@@H](CCC(N)=O)C(=O)N[C@@H](CCCNC(=N)N)C(=O)N[C@H](C(=O)N[C@@H](CCCCN)C(=O)N[C@@H](CC(=O)O)C(=O)N[C@@H](Cc1ccccc1)C(=O)N[C@@H](CC(C)C)C(=O)N[C@@H](CCCNC(=N)N)C(=O)N[C@@H](CC(N)=O)C(=O)N[C@@H](CC(C)C)C(=O)N[C@H](C(=O)N1CCC[C@H]1C(=O)N[C@@H](CCCNC(=N)N)C(=O)N[C@H](C(=O)N[C@@H](CCC(=O)O)C(=O)N[C@@H](CO)C(=O)O)[C@@H](C)O)C(C)C)[C@@H](C)CC)C(C)C)[C@@H](C)CC [5-TAMRA-LL-37]
- MIC (mode MIC) of 5-TAMRA-labeled AMP derivatives (E. coli (MG1655); [1]): 2 µM

Molecule: CC[C@H](C)[C@H](NC(=O)[C@H](CCCNC(=N)N)NC(=O)[C@@H]1CCCN1C(=O)[C@@H]1CCCN1C(=O)[C@H](CC(C)C)NC(=O)[C@H](CCCNC(=N)N)NC(=O)[C@@H]1CCCN1C(=O)[C@@H]1CCCN1C(=O)[C@H](Cc1ccccc1)NC(=O)[C@H](Cc1ccccc1)NC(=O)[C@@H]1CCCN1C(=O)[C@@H]1CCCN1C(=O)[C@@H]1CCCN1C(=O)[C@H](CCCNC(=N)N)NC(=O)[C@@H]1CCCN1C(=O)[C@H](CCCNC(=N)N)NC(=O)[C@@H]1CCCN1C(=O)[C@H](CC(C)C)NC(=O)[C@H](Cc1ccc(O)cc1)NC(=O)[C@@H]1CCCN1C(=O)[C@@H]1CCCN1C(=O)[C@H](CCCNC(=N)N)NC(=O)[C@@H]1CCCN1C(=O)[C@H](CCCNC(=N)N)NC(=O)[C@H](CCCNC(=N)N)NC(=O)[C@H](CCCNC(=N)N)NC(=O)c1ccc2c(c1)C(=O)OC21c2ccc(N(C)C)cc2Oc2cc(N(C)C)ccc21)C(=O)N1CCC[C@H]1C(=O)N1CCC[C@H]1C(=O)NCC(=O)N[C@@H](Cc1ccccc1)C(=O)N1CCC[C@H]1C(=O)N1CCC[C@H]1C(=O)N[C@@H](CCCNC(=N)N)C(=O)N[C@@H](Cc1ccccc1)C(=O)N1CCC[C@H]1C(=O)N1CCC[C@H]1C(=O)N[C@@H](CCCNC(=N)N)C(=O)N[C@@H](Cc1ccccc1)C(=O)N1CCC[C@H]1C(N)=O [5-TAMRA-PR-39] (5TAMRA-RRRPRPPYLPRPRPPPFFPPRLPPRIPPGFPPRFPPRFP-NH2; C-terminus assumed)
- MIC (mode MIC) of 5-TAMRA-labeled AMP derivatives (E. coli (MG1655); MG1655, 20 h): 2 µM

Molecule: CC(C)C[C@H](NC(=O)[C@H](CCCNC(=N)N)NC(=O)CNC(=O)CNC(=O)[C@@H](N)CCCNC(=N)N)C(=O)N[C@H]1CSSC[C@@H](C(=O)N[C@H](C(=O)NCC(=O)N[C@@H](CCCNC(=N)N)C(N)=O)C(C)C)NC(=O)[C@H](C(C)C)NC(=O)[C@@H]2CSSC[C@H](NC(=O)[C@H](Cc3ccc(O)cc3)NC1=O)C(=O)N[C@@H](CCCNC(=N)N)C(=O)N[C@@H](CCCNC(=N)N)C(=O)N[C@@H](CCCNC(=N)N)C(=O)N[C@@H](Cc1ccccc1)C(=O)N2 [PG-1, protegrin-1]
- Class (timing of growth arrest relative to IM permeabilization to proteins) (E. coli strain (CJW7845); [2]): I
- OM-permeabilized cells among IM-permeabilized cells (E. coli strain (CJW7845); 2X MIC): 163/163
- OM-permeabilized cells (out of all IM-permeabilized cells) (E. coli strain (CJW7845); 10X MIC, CJW7845): 48/59

Molecule: CO[C@H]1/C=C/O[C@@]2(C)Oc3c(C)c(O)c4c(O)c(c(/C=N/N5CCN(C)CC5)c(O)c4c3C2=O)NC(=O)/C(C)=C\C=C\[C@H](C)[C@H](O)[C@@H](C)[C@@H](O)[C@@H](C)[C@H](OC(C)=O)[C@@H]1C [Rif, rifampicin]
- MIC (mode MIC), antibiotics (E. coli (MG1655); [1]): 16 µg/mL

Molecule: CN[C@@H]1[C@H](O)[C@H](NC)[C@H]2O[C@@]3(O)C(=O)C[C@@H](C)O[C@H]3O[C@@H]2[C@H]1O [Spect, spectinomycin]
- MIC (mode MIC), antibiotics (E. coli (MG1655); [1]): 64 µg/mL

Molecule: GIGKFLHSAKKFGKAFVGEIMNS [Mag2, magainin-2]
- MIC (mode MIC) (E. coli (MG1655); MG1655, 20 h): 40 µM

Molecule: GIINTLQKYYCRVRGGRCAVLSCLPKEEQIGKCSTRGRKCCRRKK (disulfide 11-40, 18-33, 23-41 (inferred)) [HBD-3, human β-defensin 3]
- MIC (mode MIC) (E. coli (MG1655); MG1655, 20 h): 20 µM
- Class (timing of growth arrest relative to IM permeabilization to proteins) (E. coli strain (CJW7845); [2]): I
- Type (relative timing of OM and IM permeabilization) (E. coli strain (CJW7845); [2]): B (type B AMPs and PMs permeabilize the IM well before (>10 min) the OM)
- OM-permeabilized cells among IM-permeabilized cells (E. coli strain (CJW7845); 2X MIC): 7/82

Molecule: GLLRKGGEKIGEKLKKIGQKIKNFFQKLVPQPEQ [CRAMP]
- MIC (mode MIC) (E. coli (MG1655); E. coli MG1655, M9gluCAAT, 37°C, 20 h, inoculum ~250 cells/mL, max growth rate < 0.2 log(OD)/h, mode across three biological replicates with two technical replicates each): 4 µM

Molecule: RRIPFWPPNWPGPWLPPWSPPDFRIPRILRKR [Tur1B]
- MIC (mode MIC) (E. coli (MG1655); MG1655, 20 h): 8 µM

Molecule: RSIRRPRLPRPRVPRPYIPPRIPRPVLPPPRFPIPRFPRGR [CamBac, camel bactenecin]
- MIC (mode MIC) (E. coli (MG1655); MG1655, 20 h): 0.5 µM

From article doi:10.1101/2025.04.10.648262, “Time-resolved phenotyping at subcellular resolution reveals shared principles and key trade-offs across antimicrobial peptide activities” (bioRxiv, 2026)
